Measurements from patent US20060128759A1, “Substituted isoxazole derivatives and their use in pharmaceutics” (MERCKLE GMBH, priority 2002, published 2006).

Biological target: p38α (Homo sapiens, UniProt Q16539)
Assay: Kinase assay (phosphorylation of ATF2 by activated p38α, ELISA readout at 405 nm)
Type: biochemical
Conditions: for IC50: activated p38α, ATF2 substrate, 100 μM ATP, 37° C., 1 hour, read-out: IC50 p 38
Protocol: • 1) The mononuclear cells (PBMCs) from human potassium-EDTA whole blood, diluted 1:3, are isolated by density gradient centrifugation (Histopaque®-1.077). The cells are washed twice with DPBS buffer, resuspended in macrophage SFM medium and adjusted to a cell count of 1*10^6 cells/ml. • The resulting PBMCs suspension (samples of in each case 390 μl) and the test substance are preincubated at 37° C. in a CO2 incubator (5% CO2; 95% moisture-saturated air) for 15 min. The samples are then stimulated with in each case 1 μl/ml of LPS (E. coli 026:B6) at 37° C. in a CO2 incubator (5% CO2; 95% moisture-saturated air) for 4 hours. The reaction is stopped by placing the samples on ice, adding DPBS buffer and then centrifuging at 15 880*g for 12 min. The amount of IL-1β and TNFα in the plasma supernatant is then determined by ELISA. • 2) Kinase assay • At 37° C., microtiter plates were coated for one hour with 50 μl of ATF2 solution (20 μg/ml). The plates were washed three times with water, and 50 μl of kinase mixture (50 mM tris-HCl 10 mM MgCl2, 10 mM β-glycerol phosphate, 10 μg/ml of BSA, 1 mM DTT, 100 μM ATP, 100 μM Na3VO4, 10 ng of activated p38α) with or without inhibitor were added into the wells, and the plates were incubated at 37° C. for 1 hour. The plates were washed three times and then incubated with phosphorus-ATF-2 antibody at 37° C. for one hour. The plates were once more washed three times, and goat-antirabbit IgG labeled with alkaline phosphatase was added at 37° C. for one hour (to fix the antibody-phosphorylated protein/substrate complex). The plates were washed three times, and the alkaline phosphatase/substrate solution (3 mM 4-NPP, 50 mM NaHCO3, 50 mM MgCl2, 100 μl/well) was added at 37° C. for 1.5 hours. […] The IC50 values were calculated.

Sequence of p38α (Q16539 whole entry): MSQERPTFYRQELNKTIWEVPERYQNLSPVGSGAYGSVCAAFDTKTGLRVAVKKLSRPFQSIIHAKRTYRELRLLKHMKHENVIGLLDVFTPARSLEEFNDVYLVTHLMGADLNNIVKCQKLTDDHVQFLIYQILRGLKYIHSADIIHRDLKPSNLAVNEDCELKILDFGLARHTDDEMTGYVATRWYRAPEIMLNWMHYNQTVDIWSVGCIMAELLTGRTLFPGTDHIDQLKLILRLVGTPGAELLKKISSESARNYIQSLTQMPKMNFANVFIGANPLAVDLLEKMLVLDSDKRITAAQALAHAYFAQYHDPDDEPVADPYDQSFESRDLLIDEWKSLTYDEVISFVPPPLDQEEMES

Row | Molecule | IC50 [µM] | inhibition at 10 µM (at 10^−5 mol/l, read-out: % inhibition of p 38) [%]
1 | CC(=O)Nc1cc(-c2onc(-c3ccncc3)c2-c2ccc(F)cc2)ccn1 [Compound 3, N-{4-[4-(4-fluorophenyl)-3-pyridin-4-ylisoxazol-5-yl]pyridine-2-yl}acetamide] | 30 | 
2 | CN(C)c1ccc(-c2onc(-c3ccncc3)c2-c2ccc(F)cc2)cc1 [Compound 8, {4-[4-(4-fluorophenyl)-3-pyridin-4-ylisoxazol-5-yl]phenyl}dimethylamine] | 27 | 
3 | Fc1ccc(-c2noc(-c3ccc(F)cc3)c2-c2ccncc2)cc1 [Compound 14, 4-[3,5-Bis(4-fluorophenyl)isoxazol-4-yl]pyridine] |  | 43.6
4 | CN(C)Cc1onc(-c2ccncc2)c1-c1ccc(F)cc1 [Compound 4, [4-(4-fluorophenyl)-3-pyridin-4-ylisoxazol-5-ylmethyl]dimethylamine] | 4 | 
5 | Fc1ccc(-c2c(-c3ccncc3)noc2C2CC2)cc1 [Compound 7, 4-[5-cyclopropyl-4-(4-fluorophenyl)isozazol-3-yl]pyridine] | 28 | 
6 | 4-[5-(ethoxyphenyl)-4-(4-fluorophenyl)isoxazol-3-yl]pyridine [Compound 11] | 10 | 
7 | Fc1ccc(-c2c(-c3ccncc3)noc2-c2ccco2)cc1 [Compound 6, 4-[4-(4-fluorophenyl)-5-furan-2-ylisoxazol-3-yl]pyridine] | 22 | 
8 | Fc1ccc(-c2c(-c3ccncc3)noc2N2CCCCC2)cc1 [Compound 9, 4-[4-(4-fluorophenyl)-5-piperidin-1-ylisoxazol-3-yl]pyridine] | 10 | 
9 | COc1ccc(-c2onc(-c3ccncc3)c2-c2ccc(F)cc2)cc1 [Compound 10, 4-[4-(4-fluorophenyl)-5-(4-methoxyphenyl)isoxazol-3-yl]pyridine] | 10 | 
10 | Fc1ccc(-c2c(-c3ccncc3)noc2-c2ccccc2)cc1 [Compound 5, 4-[4-(4-fluorophenyl)-5-phenylisoxazol-3-yl]pyridine] | 22 | 
11 | Cc1onc(-c2ccncc2)c1-c1ccc(F)cc1 [Compound 1, 4-[4-(4-fluorophenyl)-5-methylisoxazol-3-yl]pyridine] | 67.5 | 
